In patent US9809562B2, “NAT10 modulators for treating or preventing laminopathies, aging and cancer” (CAMBRIDGE ENTERPRISE LIMITED, priority 2014, dated 2017):
Structures can show the parent of a compound that is named as a salt.

Key:
SUN1 in siLMNA cells = assay: SUN1 expression and localization in siLMNA cells; assay type: cell-based, human
Method: Cells were washed with PBS and fixed for 20 minutes with 2% PFA in PBS. Cells were permeabilised for 5 minutes with PBS/0.2% Triton X-100, and blocked with PBS/0.2% Tween 20 (PBS-T) containing 5% BSA. Coverslips were incubated for 1 hour with primary antibodies and for 30 minutes with appropriate secondary antibodies coupled to Alexa Fluor 488 or 594 fluorophores (Life Technologies), before being incubated with 2 μg/ml DAPI. Pictures were acquired with a FluoView 1000 confocal microscope (Olympus). For high resolution imaging, z-stacks were acquired with a Deltavision PersonalDV (Applied Precision, 1024×1024 CoolSNAP HQ2 camera, z-stack of 0.2 μm interval) or with a Deltavision OMX V3 in conventional mode (Applied Precision, 512×512 Cascade II cameras (Photometrics), z-stack of 0.125 μm interval) both equipped with a 100× UPlanSApo/1.40 oil objective (Olympus) and controlled with SoftWoRx software (Applied Precision). Deconvolutions were then performed with SoftWoRx (Applied Precision) in conservative mode. The different channels were acquired sequentially.

[1] = system: HGPS mice (Lmna^G609G/G609G); assay: Survival in mouse model of Hutchinson Gilford progeria syndrome; assay type: in vivo; details: daily oral dose of 100 mg/kg/day from 3 weeks of age, vs vector only, n=10
Method: Middle panel of FIG. 25: HGPS mice were treated with a daily oral dose of 100 mg/kg/day of Compound 2 from 3 weeks of age and until culled due to >20% body weight loss. […] Right panel of FIG. 25: Global survival of HGPS mice (Lmna^G609G/G609G) treated with vector only (Lmna^G609G/G609G V) or with Compound 2 (Lmna^G609G/G609G2) showing a significant increase of the median survival of mice upon Compound 2 treatment (+25%). Number of mice/group n=10.

N#Cc1ccc(-c2csc(NN=C3CCCC3)n2)cc1 [Compound 1, 4-(4-Cyanophenyl)-2-(2-cyclopentylidenehydrazinyl)thiazole]
expression and localization of SUN1 (SUN1 in siLMNA cells): does not detectably affect the expression and localization of SUN1

Clc1ccc(-c2csc(NN=C3CCCC3)n2)cc1 [Compound 2, 4-(4-Chlorophenyl)-2-(2-cyclopentylidenehydrazinyl)thiazole Hydrochloride Salt]
increase of the median survival [1]: +25%
